These results are taken from patent EP4378448B1, “EXTRACT OF FLOWERS, LEAVES AND/OR SEED PODS OF IMPATIENS AND LEAVES OF PANDANUS, IN DRIED AND LIQUID FORM, A METHOD OF ITS OBTAINING AND USE THEREOF” (PBCLABS Sp. z o.o., priority 2022, dated 2024).

Common to all, as to format: biochemical
Experiment [1] concerns collagenase from Clostridium haemolyticum. Briefly: Inhibition of collagenase activity (FALGPA substrate). The following applies: 100 µg/mL (extract in glycerol; EGCG standard at 100 µg/mL). How it is done:
The enzymatic method for the determination of collagenase (EC 3.4.24.3) using FALGPA (N-(3-[2-furyl]acryloyl)-Leu-Gly-Pro-Ala) as substrate for collagenase, which was dissolved in 50 mM Tricine buffer (pH 7.5) at an initial concentration of 0.8 U/mL, was used for the study. FALGPA was dissolved in Tricine buffer to 2 mM. Various concentrations were prepared from the lyophilised extract of Example 1 by dissolving in glycerol and incubating with the enzyme for 15 minutes before adding the substrate to start the reaction. The final reaction mixture (150 µL) contained Tricine buffer, 0.8 mM of FALGPA, 0.1 U of collagenase and the extract at appropriate concentration. Epigallocatechin gallate (EGCG; Supelco) at the concentration of 100 µg/mL was used as a standard. The absorbance at wavelength of λ=345 nm was measured immediately after substrate addition and then continuously for 20 minutes.

Experiment [2] concerns the target T1, porcine pancreatic elastase (Sus scrofa, UniProt P00772).
T1 construct: purchased Sigma-Aldrich
The experiment in a line: Inhibition of elastase activity (AAAPVN substrate). Conditions: 100 µg/mL (extract in glycerol; EGCG standard at 100 µg/mL). How it is done:
The method using porcine pancreatic elastase (PE - E.C.3.4.21.36; Sigma-Aldrich) was used for the study, which was dissolved in distilled water to prepare a stock solution with a concentration of 3.33 mg/mL. The substrate […] (AAAPVN; Sigma-Aldrich) was dissolved in 1.6 mM Tris-HCl buffer (pH 8.0). The extract of Example 1 dissolved in glycerol (concentrations of 5-100 µg/mL) was incubated with the enzyme for 15 minutes before adding the substrate to start the reaction. The final reaction mixture in the well of the 96-well plate (total volume 200 µL) contained buffer, 0.8 mM of AAAPVN, 1 µg/mL of elastase and 25 µL of extract at the appropriate concentration. Epigallocatechin gallate (EGCG; Supelco) at the concentration of 100 µg/mL was used as a standard. Negative controls were performed using water. Absorbance values were measured immediately after substrate addition and then after 20 minutes at wavelength of λ=410 nm.

The target of the next experiment is T2, soybean lipoxygenase (Glycine max, UniProt P08170).
T2 construct: purchased Sigma-Aldrich Chemie GmbH, Steinheim, Germany
T2 sequence (P08170 1-839): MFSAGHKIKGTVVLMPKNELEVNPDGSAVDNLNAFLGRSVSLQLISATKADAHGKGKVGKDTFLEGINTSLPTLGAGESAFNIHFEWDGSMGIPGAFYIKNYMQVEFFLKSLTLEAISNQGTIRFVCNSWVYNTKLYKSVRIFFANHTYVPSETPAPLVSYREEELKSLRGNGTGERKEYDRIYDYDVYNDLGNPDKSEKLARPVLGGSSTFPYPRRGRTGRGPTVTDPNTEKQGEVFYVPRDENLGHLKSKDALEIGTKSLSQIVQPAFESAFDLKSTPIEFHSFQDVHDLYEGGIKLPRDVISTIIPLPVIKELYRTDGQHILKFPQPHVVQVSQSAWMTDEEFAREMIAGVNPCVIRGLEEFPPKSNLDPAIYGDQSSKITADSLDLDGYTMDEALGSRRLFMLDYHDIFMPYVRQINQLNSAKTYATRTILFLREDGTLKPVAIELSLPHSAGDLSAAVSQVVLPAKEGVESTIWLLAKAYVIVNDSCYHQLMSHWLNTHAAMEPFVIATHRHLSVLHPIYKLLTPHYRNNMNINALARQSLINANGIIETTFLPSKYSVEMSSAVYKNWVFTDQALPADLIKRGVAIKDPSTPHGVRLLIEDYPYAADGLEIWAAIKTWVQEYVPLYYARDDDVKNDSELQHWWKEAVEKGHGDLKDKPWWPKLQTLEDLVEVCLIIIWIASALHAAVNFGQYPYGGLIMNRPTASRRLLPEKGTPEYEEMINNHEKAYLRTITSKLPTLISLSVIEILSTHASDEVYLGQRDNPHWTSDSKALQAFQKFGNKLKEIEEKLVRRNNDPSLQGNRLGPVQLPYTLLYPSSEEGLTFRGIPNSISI
Briefly: Anti-inflammatory properties, lipoxygenase inhibition. The following applies: positive control, concentration not given. How it is done:
The study of anti-inflammatory activity of the extract of Example 1 was assessed on the basis of lipoxygenase inhibition using a spectrophotometric method in 96-well plates. For this purpose, 100 µL of various concentrations of extract solution in potassium phosphate buffer (pH = 8.5), 50 µL of soybean lipoxygenase solution (LOX; 167 U/mL; Sigma-Aldrich Chemie GmbH, Steinheim, Germany) in potassium phosphate buffer (pH = 8.5), and finally 50 µL of linoleic acid solution (LA; 134 µM; Sigma-Aldrich Chemie GmbH, Steinheim, Germany) were added to the wells. Changes in absorbance at 234 nm were then measured for a period of 25 minutes with intervals of 30 seconds. Indomethacin (Sigma-Aldrich) was used as a positive control. The activity of the extract was calculated as the percentage of LOX enzyme activity (% of activity) in relation to the maximal activity (negative control - solution without studied extract) after subtracting the absorbance of the extract at 234 nm in all cases. Absorbance values at the 10th minute of the reaction were used for the calculations.

The test system of the next experiment is fungal tyrosinase. Briefly: Inhibition of fungal tyrosinase activity (L-DOPA substrate). Conditions: standard at 100 µL/mL.

T1 sequence (P00772 27-266): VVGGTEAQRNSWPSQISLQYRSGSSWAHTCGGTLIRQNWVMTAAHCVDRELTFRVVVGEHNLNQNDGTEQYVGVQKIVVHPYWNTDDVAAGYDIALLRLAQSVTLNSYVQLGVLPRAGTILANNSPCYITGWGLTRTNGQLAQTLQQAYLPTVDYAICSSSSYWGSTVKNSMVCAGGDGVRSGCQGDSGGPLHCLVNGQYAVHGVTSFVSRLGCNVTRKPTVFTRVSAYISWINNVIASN
Procedure for fungal tyrosinase: The tyrosinase (EC 1.14.18.1, 25 KU, fungal tyrosinase, Sigma-Aldrich) inhibitory effect was measured using L-3,4-dihydroxyphenylalanine (L-DOPA, Supelco) as a substrate. To perform it, various concentrations of the studied extract (20 µL), tyrosinase solution (200 U/mL, 40 µL) and phosphate buffer (100 µL, 50 mM, pH 6.5) were applied to a 96-well plate, and then incubated for 15 minutes at 25°C. The reaction was started with the addition of L-DOPA (40 µL) and incubated for a further 15 minutes, after which the absorbance was measured at wavelength of λ=475 nm compared to the control without the inhibitor. In the control sample, representing 100% of enzyme activity, phosphate buffer was added instead of the extract. Tyrosinase inhibitory activity was determined by comparing the enzyme activity in samples with and without the assessed inhibitor. Kojic acid (Supelco) at a concentration of 100 µL/mL was used as a standard.

In the case of `O=C(O[C@@H]1Cc2c(O)cc(O)cc2O[C@@H]1c1cc(O)c(O)c(O)c1)c1cc(O)c(O)c(O)c1` [EGCG, Epigallocatechin gallate], the “Collagenase inhibition (%)” value in experiment [1] is 84.45%. The inhibition at 100 µg/mL in experiment [2] is 92.2%.

As for `COc1ccc2c(c1)c(CC(=O)O)c(C)n2C(=O)c1ccc(Cl)cc1` [Indomethacin], at soybean lipoxygenase, the “Inhibition of LOX activity [%]” value turned out to be 99.80%.

For the compound `O=c1cc(CO)occ1O` [kojic acid], the “Tyrosinase inhibition [%]” value in the experiment with fungal tyrosinase was 61.17%.
